Experimental data reported in the supplement of paper PMC5908809.

Assays:
Experiment in all cases: relative IC50 (inflection point of fitted viability curve, relative to fitted max inhibition); higher = less sensitive
Conditions in all cases: 72 h
[1] = system: NK-YS (IL-2 2.5 ng/mL)
Protocol: (§1)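 Drug sensitivity and resistance testing: 5 concentrations over a 10,000-fold range, 72 h at 37 °C, viability by CellTiter-Glo normalised to DMSO and benzethonium chloride controls. IC50 is the inflection point of a logistic fit (min fixed at 0, max fitted), so it is relative to the fitted maximal inhibition. Kept only where fitted max inhibition is at least 50%.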

[2] = system: DERL-7 (IL-2 2.5 ng/mL)
Protocol: as §1

[3] = system: IMC-1 (IL-2 20 ng/mL)
Protocol: as §1

[4] = system: YT (IL-2 2.5 ng/mL)
Protocol: as §1

[5] = system: NKL (IL-2 2.5 ng/mL)
Protocol: as §1

[6] = system: KAI3 (IL-2 2.5 ng/mL)
Protocol: as §1

[7] = system: NK-92 (IL-2 2.5 ng/mL)
Protocol: as §1

[8] = system: KHYG-1 (IL-2 2.5 ng/mL)
Protocol: as §1

[9] = system: SNK-6 (IL-2 2.5 ng/mL)
Protocol: as §1

[10] = system: normal primary NK cells, pool 2 (3 donors) (IL-2 2.5 ng/mL)
Protocol: as §1

[11] = system: normal primary NK cells, pool 3 (3 donors) (IL-2 2.5 ng/mL)
Protocol: as §1

[12] = system: normal primary NK cells, pool 1 (3 donors), resting (IL-2 0 ng/mL)
Protocol: as §1

[13] = system: normal primary NK cells, pool 1 (3 donors) (IL-2 2.5 ng/mL)
Protocol: as §1

Compound | relative IC50 [1] | relative IC50 [2] | relative IC50 [3] | relative IC50 [4] | relative IC50 [5] | relative IC50 [6] | relative IC50 [7] | relative IC50 [8] | relative IC50 [9] | relative IC50 [10] | relative IC50 [11] | relative IC50 [12] | relative IC50 [13]
O=C(O)c1ccc(Nc2ncc3c(n2)-c2ccc(Cl)cc2C(c2c(F)cccc2F)=NC3)cc1 [MLN-8054] | 125 nM | 763 nM | 1540 nM | 190 nM | 107 nM | 291 nM | 563 nM | 259 nM | 73.6 nM | – | – | – | –
CCN(CC)CCCC(C)Nc1c2ccc(Cl)cc2nc2ccc(OC)cc12 (configuration not stated) [Mepacrine] | – | – | 1500 nM | – | – | – | – | – | – | 1220 nM | 1550 nM | – | –
S=c1[nH]cnc2nc[nH]c12 [Mercaptopurine] | 725 nM | – | 1590 nM | 1410 nM | – | 2160 nM | 393 nM | 1420 nM | 137 nM | – | – | > 10000 nM | –
FC(F)(F)c1ccc(/C=C/c2nc(COc3ccc(CCCCn4ccnn4)cc3)co2)cc1 [Mubritinib] | 42 nM | – | 11.2 nM | – | 56 nM | – | – | 45.7 nM | – | – | – | 12 nM | 12.2 nM
CN(C)C(=O)c1cc2cnc(Nc3ccc(N4CCNCC4)cn3)nc2n1C1CCCC1 [NVP-LEE011] | – | – | – | – | – | – | – | 1060 nM | – | – | – | 630 nM | 2200 nM
CCOc1cc2ncc(C#N)c(Nc3ccc(OCc4ccccn4)c(Cl)c3)c2cc1NC(=O)/C=C/CN(C)C [Neratinib] | – | 216 nM | – | – | – | – | 206 nM | – | – | – | – | 364 nM | –
Cc1sc2c(c1C)C(c1ccc(Cl)cc1)=N[C@@H](CC(=O)Nc1ccc(O)cc1)c1nnc(C)n1-2 [OTX015] | 229 nM | 48.1 nM | 630 nM | 241 nM | 75.2 nM | 437 nM | – | 145 nM | 43 nM | 393 nM | 804 nM | – | 171 nM
COc1ncc(-c2ccc3nccc(-c4ccnnc4)c3c2)cc1NS(=O)(=O)c1ccc(F)cc1F [Omipalisib] | 39.5 nM | 11.1 nM | – | 29 nM | 57.5 nM | 11.4 nM | 11.2 nM | 114 nM | 101 nM | – | – | – | –
O=C(O)C(=O)O.[NH-][C@@H]1CCCC[C@H]1[NH-].[Pt+2] [Oxaliplatin] | – | – | 9490 nM | – | – | – | – | – | – | 9290 nM | 9130 nM | – | –
OC[C@H]1O[C@@H](n2cnc3c2N=CNC[C@H]3O)C[C@@H]1O [Pentostatin] | – | – | – | – | > 10000 nM | > 10000 nM | – | – | – | – | – | – | –
Cc1cnc(NC(=O)Nc2cc(Br)c(C)cc2OC[C@@H]2CNCCO2)cn1 [Rabusertib] | 279 nM | – | – | – | 192 nM | 203 nM | 172 nM | 197 nM | 179 nM | – | – | – | > 1000 nM
CNC(=O)c1cc(Oc2ccc(NC(=O)Nc3cc(C(C)(C)C)nn3-c3ccc4ncccc4c3)c(F)c2)ccn1 [Rebastinib] | – | – | – | – | – | – | – | – | – | > 1000 nM | > 1000 nM | – | > 1000 nM
O=C(Nc1cccc(Cl)c1)Nc1ncc(CCNc2ncnc3ccsc23)s1 [SNS-314] | 37.9 nM | 28.1 nM | 201 nM | – | – | – | 61.3 nM | 12.4 nM | 10.5 nM | – | – | – | –
